Results taken from PubChem BioAssay AID1963421 (Molecular Pharmacology Branch, DTP, NCI, 2024).
Several values for one entry are separate records, joined by “and”; a condition that tells them apart may be missing. Identical values can stand only once.

Test system: 519858-162-T-J1-PDC complex spheroid growth, % test/control
Assay: Anticancer human tumor 519858-162-T-J1-PDC patient-derived colon adenocarcinoma cell line growth inhibition [Asc]
Conditions: for viability, T/C: stronger effect = lower value
Method in brief: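 Spheroid model: tumor line + HUVEC + hMSC. Single agents and combinations; top conc. at/near clinical Cmax (10 microM if undetermined), half-log dilutions. DMSO stocks at 800-fold test concentration.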

[1] = curve of first compound, second compound 0.00949 µM
[2] = curve of first compound, second compound 0.03 µM
[3] = curve of first compound, second compound 0.0949 µM
[4] = curve of first compound, second compound 0.3 µM
[5] = curve of first compound, second compound 0.949 µM
[6] = curve of first compound, second compound 3 µM
[7] = second compound 0.00949 µM, first compound 0.00316 µM
[8] = second compound 0.00949 µM, first compound 0.01 µM
[9] = second compound 0.00949 µM, first compound 0.0316 µM
[10] = second compound 0.00949 µM, first compound 0.1 µM
[11] = second compound 0.03 µM, first compound 0.00316 µM
[12] = second compound 0.03 µM, first compound 0.01 µM
[13] = second compound 0.03 µM, first compound 0.0316 µM
[14] = second compound 0.03 µM, first compound 0.1 µM
[15] = second compound 0.0949 µM, first compound 0.00316 µM
[16] = second compound 0.0949 µM, first compound 0.01 µM
[17] = second compound 0.0949 µM, first compound 0.0316 µM
[18] = second compound 0.0949 µM, first compound 0.1 µM
[19] = second compound 0.3 µM, first compound 0.00316 µM
[20] = second compound 0.3 µM, first compound 0.01 µM
[21] = second compound 0.3 µM, first compound 0.0316 µM
[22] = second compound 0.3 µM, first compound 0.1 µM
[23] = second compound 0.949 µM, first compound 0.00316 µM
[24] = second compound 0.949 µM, first compound 0.01 µM
[25] = second compound 0.949 µM, first compound 0.0316 µM
[26] = second compound 0.949 µM, first compound 0.1 µM
[27] = second compound 3 µM, first compound 0.00316 µM
[28] = second compound 3 µM, first compound 0.01 µM
[29] = second compound 3 µM, first compound 0.0316 µM
[30] = second compound 3 µM, first compound 0.1 µM
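Further: seven day drug exposure begun three days after spheroid seeding.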
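Wherever viability, T/C is given: 100% = DMSO vehicle wells and lower values mean less viable spheroid.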

SMILES: O=C(c1ccc(F)c(F)c1Nc1ccc(I)cc1F)N1CC(O)([C@@H]2CCCCN2)C1 + CCN1C(C(=O)NC23CCC(C(=O)O)(CC2)CC3)C(c2cccc(Cl)c2F)C2(C(=O)Nc3cc(Cl)ccc32)C12CCCCC2
- IC50 [1]: 213 nM
- IC50 [2]: 130 nM
- IC50 [3]: 211 nM
- IC50 [4]: 250 nM
- IC50 [5]: 246 nM
- IC50 [6]: 167 nM
- viability, T/C [7]: 57.3%
- viability, T/C [8]: 86.8%
- viability, T/C [9]: 88.8%
- viability, T/C [10]: 116%
- viability, T/C (second compound 0.00949 µM, first compound 0.316 µM): 30.6%
- viability, T/C (second compound 0.00949 µM, first compound 1 µM): 19.1%
- viability, T/C [11]: 126%
- viability, T/C [12]: 91.1%
- viability, T/C [13]: 93.1%
- viability, T/C [14]: 56%
- viability, T/C (second compound 0.03 µM, first compound 0.316 µM): 42.5%
- viability, T/C (second compound 0.03 µM, first compound 1 µM): 17.6%
- viability, T/C [15]: 105%
- viability, T/C [16]: 115%
- viability, T/C [17]: 64.8%
- viability, T/C [18]: 79.9%
- viability, T/C (second compound 0.0949 µM, first compound 0.316 µM): 36.1%
- viability, T/C (second compound 0.0949 µM, first compound 1 µM): 15.5%
- viability, T/C [19]: 90.5%
- viability, T/C [20]: 90%
- viability, T/C [21]: 66.1%
- viability, T/C [22]: 91.8%
- viability, T/C (second compound 0.3 µM, first compound 0.316 µM): 41.1%
- viability, T/C (second compound 0.3 µM, first compound 1 µM): 17.2%
- viability, T/C [23]: 81%
- viability, T/C [24]: 64%
- viability, T/C [25]: 73%
- viability, T/C [26]: 70.1%
- viability, T/C (second compound 0.949 µM, first compound 0.316 µM): 44.3%
- viability, T/C (second compound 0.949 µM, first compound 1 µM): 21.9%
- viability, T/C [27]: 68.4%
- viability, T/C [28]: 104%
- viability, T/C [29]: 46.3%
- viability, T/C [30]: 65.7%
- viability, T/C (second compound 3 µM, first compound 0.316 µM): 39.5%
- viability, T/C (second compound 3 µM, first compound 1 µM): 14.3%

SMILES: Cc1nc(N2CCC3(CC2)COC(C)C3N)c(CO)nc1Sc1ccnc(N)c1Cl (stereo not given) + CNC(C)C(=O)NC1CN(S(=O)(=O)c2cccc(S(=O)(=O)N3CCC4CCC(C(=O)NC(c5ccccc5)c5ccccc5)N4C(=O)C(NC(=O)C(C)NC)C3)c2)CCC2CCC(C(=O)NC(c3ccccc3)c3ccccc3)N2C1=O
- IC50 (curve of first compound, second compound 0.00316 µM): > 3000 nM
- IC50 (curve of first compound, second compound 0.01 µM): > 3000 nM
- IC50 (curve of first compound, second compound 0.0316 µM): > 3000 nM
- IC50 (curve of first compound, second compound 0.1 µM): > 3000 nM
- IC50 (curve of first compound, second compound 0.316 µM): > 3000 nM
- IC50 (curve of first compound, second compound 1 µM): > 3000 nM
- viability, T/C (second compound 0.00316 µM, first compound 0.00949 µM): 112%
- viability, T/C (second compound 0.00316 µM, first compound 0.03 µM): 91.2%
- viability, T/C (second compound 0.00316 µM, first compound 0.0949 µM): 91.2%
- viability, T/C (second compound 0.00316 µM, first compound 0.3 µM): 62.1%
- viability, T/C (second compound 0.00316 µM, first compound 0.949 µM): 62.1%
- viability, T/C (second compound 0.00316 µM, first compound 3 µM): 71.1%
- viability, T/C (second compound 0.01 µM, first compound 0.00949 µM): 100%
- viability, T/C (second compound 0.01 µM, first compound 0.03 µM): 120%
- viability, T/C (second compound 0.01 µM, first compound 0.0949 µM): 102%
- viability, T/C (second compound 0.01 µM, first compound 0.3 µM): 68%
- viability, T/C (second compound 0.01 µM, first compound 0.949 µM): 55.3%
- viability, T/C (second compound 0.01 µM, first compound 3 µM): 61%
- viability, T/C (second compound 0.0316 µM, first compound 0.00949 µM): 83.8%
- viability, T/C (second compound 0.0316 µM, first compound 0.03 µM): 91.4%
- viability, T/C (second compound 0.0316 µM, first compound 0.0949 µM): 96.8%
- viability, T/C (second compound 0.0316 µM, first compound 0.3 µM): 81.5%
- viability, T/C (second compound 0.0316 µM, first compound 0.949 µM): 84.5%
- viability, T/C (second compound 0.0316 µM, first compound 3 µM): 60.8%
- viability, T/C (second compound 0.1 µM, first compound 0.00949 µM): 87.7%
- viability, T/C (second compound 0.1 µM, first compound 0.03 µM): 84.5%
- viability, T/C (second compound 0.1 µM, first compound 0.0949 µM): 87.7%
- viability, T/C (second compound 0.1 µM, first compound 0.3 µM): 72.6%
- viability, T/C (second compound 0.1 µM, first compound 0.949 µM): 74.5%
- viability, T/C (second compound 0.1 µM, first compound 3 µM): 64.8%
- viability, T/C (second compound 0.316 µM, first compound 0.00949 µM): 96.9%
- viability, T/C (second compound 0.316 µM, first compound 0.03 µM): 85.3%
- viability, T/C (second compound 0.316 µM, first compound 0.0949 µM): 82.1%
- viability, T/C (second compound 0.316 µM, first compound 0.3 µM): 71.4%
- viability, T/C (second compound 0.316 µM, first compound 0.949 µM): 42.8%
- viability, T/C (second compound 0.316 µM, first compound 3 µM): 64.2%
- viability, T/C (second compound 1 µM, first compound 0.00949 µM): 103%
- viability, T/C (second compound 1 µM, first compound 0.03 µM): 80.8%
- viability, T/C (second compound 1 µM, first compound 0.0949 µM): 69.4%
- viability, T/C (second compound 1 µM, first compound 0.3 µM): 74.5%
- viability, T/C (second compound 1 µM, first compound 0.949 µM): 92.5%
- viability, T/C (second compound 1 µM, first compound 3 µM): 75.7%

SMILES: O=C(c1cc(Cc2n[nH]c(=O)c3ccccc23)ccc1F)N1CCN(C(=O)C2CC2)CC1
- viability, T/C (compound 0.0316 µM): 80.7% and 96.9% and 79.1%
- viability, T/C (compound 0.1 µM): 93.5% and 79.1% and 92.7%
- viability, T/C (compound 0.316 µM): 80.5% and 81.3% and 77.4%
- viability, T/C (compound 1 µM): 96.3% and 112% and 117%
- viability, T/C (compound 3.16 µM): 97.3% and 89.7% and 106%
- viability, T/C (compound 10 µM): 94.3% and 70.3% and 86.1%
- IC50 (curve of compound): > 10000 nM

SMILES: Cn1ncnc1[C@H]1c2n[nH]c(=O)c3cc(F)cc(c23)N[C@@H]1c1ccc(F)cc1 + CCN1C(C(=O)NC23CCC(C(=O)O)(CC2)CC3)C(c2cccc(Cl)c2F)C2(C(=O)Nc3cc(Cl)ccc32)C12CCCCC2
- IC50 [1]: > 100 nM
- IC50 [2]: > 100 nM
- IC50 [3]: > 100 nM
- IC50 [4]: > 100 nM
- IC50 [5]: > 100 nM
- IC50 [6]: > 100 nM
- viability, T/C (second compound 0.00949 µM, first compound 0.000316 µM): 87%
- viability, T/C (second compound 0.00949 µM, first compound 0.001 µM): 86.3%
- viability, T/C [7]: 103%
- viability, T/C [8]: 103%
- viability, T/C [9]: 84.8%
- viability, T/C [10]: 98.1%
- viability, T/C (second compound 0.03 µM, first compound 0.000316 µM): 119%
- viability, T/C (second compound 0.03 µM, first compound 0.001 µM): 82.3%
- viability, T/C [11]: 72%
- viability, T/C [12]: 91.5%
- viability, T/C [13]: 74.6%
- viability, T/C [14]: 65.5%
- viability, T/C (second compound 0.0949 µM, first compound 0.000316 µM): 137%
- viability, T/C (second compound 0.0949 µM, first compound 0.001 µM): 56.1%
- viability, T/C [15]: 105%
- viability, T/C [16]: 82.4%
- viability, T/C [17]: 90.6%
- viability, T/C [18]: 87.5%
- viability, T/C (second compound 0.3 µM, first compound 0.000316 µM): 103%
- viability, T/C (second compound 0.3 µM, first compound 0.001 µM): 90.7%
- viability, T/C [19]: 93.7%
- viability, T/C [20]: 97.3%
- viability, T/C [21]: 75.4%
- viability, T/C [22]: 91.1%
- viability, T/C (second compound 0.949 µM, first compound 0.000316 µM): 75.2%
- viability, T/C (second compound 0.949 µM, first compound 0.001 µM): 92.3%
- viability, T/C [23]: 108%
- viability, T/C [24]: 72.3%
- viability, T/C [25]: 91.9%
- viability, T/C [26]: 95.8%
- viability, T/C (second compound 3 µM, first compound 0.000316 µM): 70.2%
- viability, T/C (second compound 3 µM, first compound 0.001 µM): 68.8%
- viability, T/C [27]: 68.3%
- viability, T/C [28]: 74.2%
- viability, T/C [29]: 107%
- viability, T/C [30]: 85.1%

SMILES: CNC(C)C(=O)NC1CN(S(=O)(=O)c2cccc(S(=O)(=O)N3CCC4CCC(C(=O)NC(c5ccccc5)c5ccccc5)N4C(=O)C(NC(=O)C(C)NC)C3)c2)CCC2CCC(C(=O)NC(c3ccccc3)c3ccccc3)N2C1=O (stereo not given)
- IC50 (compound alone, run of 11/15/2022): > 1000 nM
- IC50 (curve of compound): > 1000 nM
